Columns and labels:
Experiment in all cases: combination cScore with adagrasib (Bliss gap around IC50) (%PoC); higher = stronger additive effect
NCI-H2122 = test system: NCI-H2122
Outline: (§1)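 NCI-H2122, NCI-H358 and SW837 cells (500 or 800 per well, 384-well plates) were dosed in concentration matrices after 24 h and grown 72 h, or 144 h for SW837. CellTiter-Glo luminescence was normalised to vehicle wells as percent of control and fitted with four-parameter curves. The score averages the Bliss-independence gap (expected minus measured viability) over a field around both monotherapy IC50s, or at the top concentrations when no IC50 was reached.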

NCI-H358 = test system: NCI-H358
Outline: as §1

SW837 = test system: SW837
Outline: as §1

Structure (SMILES) | combination cScore with adagrasib (NCI-H2122) | combination cScore with adagrasib (NCI-H358) | combination cScore with adagrasib (SW837)
COc1cc(Nc2c(C#N)cnc3cc(OCCCN4CCN(C)CC4)c(OC)cc23)c(Cl)cc1Cl [Bosutinib] + C=C(F)C(=O)N1CCN(c2nc(OC[C@@H]3CCCN3C)nc3c2CCN(c2cccc4cccc(Cl)c24)C3)C[C@@H]1CC#N [adagrasib] | 14.5 | 1.58 | 6.35
CC[C@H](Nc1ncnc2[nH]cnc12)c1nc2cccc(F)c2c(=O)n1-c1ccccc1 [Cal-101] + C=C(F)C(=O)N1CCN(c2nc(OC[C@@H]3CCCN3C)nc3c2CCN(c2cccc4cccc(Cl)c24)C3)C[C@@H]1CC#N [adagrasib] | 14.1 | 5.08 | 1.53
O=P1(N(CCCl)CCCl)NCCCO1 (stereo not drawn) [Cyclophosphamide] + C=C(F)C(=O)N1CCN(c2nc(OC[C@@H]3CCCN3C)nc3c2CCN(c2cccc4cccc(Cl)c24)C3)C[C@@H]1CC#N [adagrasib] | -0.77 | -0.63 | -0.5
Cc1nc(Nc2ncc(C(=O)Nc3c(C)cccc3Cl)s2)cc(N2CCN(CCO)CC2)n1 [Dasatinib] + C=C(F)C(=O)N1CCN(c2nc(OC[C@@H]3CCCN3C)nc3c2CCN(c2cccc4cccc(Cl)c24)C3)C[C@@H]1CC#N [adagrasib] | 42 | 8.94 | 14.7
COc1cccc2c1C(=O)c1c(O)c3c(c(O)c1C2=O)C[C@@](O)(C(C)=O)C[C@@H]3O[C@H]1C[C@H](N)[C@H](O)[C@H](C)O1 [Daunorubicin] + C=C(F)C(=O)N1CCN(c2nc(OC[C@@H]3CCCN3C)nc3c2CCN(c2cccc4cccc(Cl)c24)C3)C[C@@H]1CC#N [adagrasib] | 4.15 | -0.64 | 4.77
C[C@H](Nc1ncnc2nc[nH]c12)c1cc2cccc(Cl)c2c(=O)n1-c1ccccc1 [Duvelisib] + C=C(F)C(=O)N1CCN(c2nc(OC[C@@H]3CCCN3C)nc3c2CCN(c2cccc4cccc(Cl)c24)C3)C[C@@H]1CC#N [adagrasib] | 15.9 | 4.67 | 12.8
C#Cc1cccc(Nc2ncnc3cc(OCCOC)c(OCCOC)cc23)c1 [Erlotinib] + C=C(F)C(=O)N1CCN(c2nc(OC[C@@H]3CCCN3C)nc3c2CCN(c2cccc4cccc(Cl)c24)C3)C[C@@H]1CC#N [adagrasib] | 14.9 | 10 | 19.4
COc1cc(Nc2ncc(F)c(Nc3ccc4c(n3)N(COP(=O)(O)O)C(=O)C(C)(C)O4)n2)cc(OC)c1OC [Fostamatinib] + C=C(F)C(=O)N1CCN(c2nc(OC[C@@H]3CCCN3C)nc3c2CCN(c2cccc4cccc(Cl)c24)C3)C[C@@H]1CC#N [adagrasib] | 17.4 | 3.37 | 7.91
C[C@H](Nc1ccc2c(c1)OCCn1cc(N3C(=O)OC[C@H]3C(F)F)nc1-2)C(N)=O [GDC-0077] + C=C(F)C(=O)N1CCN(c2nc(OC[C@@H]3CCCN3C)nc3c2CCN(c2cccc4cccc(Cl)c24)C3)C[C@@H]1CC#N [adagrasib] | 22.2 | 5.51 | 5.13
CCCc1cc(C)[nH]c(=O)c1CNC(=O)c1cc(-c2ccnc(N3CCN(C)CC3)c2)cc2c1cnn2C(C)C [GSK343] + C=C(F)C(=O)N1CCN(c2nc(OC[C@@H]3CCCN3C)nc3c2CCN(c2cccc4cccc(Cl)c24)C3)C[C@@H]1CC#N [adagrasib] | 15.8 | 4.64 | -0.82
COc1cc2ncnc(Nc3ccc(F)c(Cl)c3)c2cc1OCCCN1CCOCC1 [Gefitinib] + C=C(F)C(=O)N1CCN(c2nc(OC[C@@H]3CCCN3C)nc3c2CCN(c2cccc4cccc(Cl)c24)C3)C[C@@H]1CC#N [adagrasib] | 15.8 | 12.5 | 23.8
CCS(=O)(=O)Nc1ccc2c(c1)/C(=C(/Nc1ccc(CN3CCCCC3)cc1)c1ccccc1)C(=O)N2 [Hesperadin] + C=C(F)C(=O)N1CCN(c2nc(OC[C@@H]3CCCN3C)nc3c2CCN(c2cccc4cccc(Cl)c24)C3)C[C@@H]1CC#N [adagrasib] | 8.14 | 0.47 | 0.27
O=C(O)CNC(=O)c1c(O)c2ccccc2n(Cc2ccccc2)c1=O [IOX2] + C=C(F)C(=O)N1CCN(c2nc(OC[C@@H]3CCCN3C)nc3c2CCN(c2cccc4cccc(Cl)c24)C3)C[C@@H]1CC#N [adagrasib] | 25.2 | 0.22 | 13.4
C[C@H](NC(=O)c1c(N)nn2cccnc12)c1cc2cccc(C#Cc3cnn(C)c3)c2c(=O)n1-c1ccccc1 [IPI-549] + C=C(F)C(=O)N1CCN(c2nc(OC[C@@H]3CCCN3C)nc3c2CCN(c2cccc4cccc(Cl)c24)C3)C[C@@H]1CC#N [adagrasib] | 13 | -0.57 | 5.62
C=CC(=O)N1CCC[C@@H](n2nc(-c3ccc(Oc4ccccc4)cc3)c3c(N)ncnc32)C1 [Ibrutinib] + C=C(F)C(=O)N1CCN(c2nc(OC[C@@H]3CCCN3C)nc3c2CCN(c2cccc4cccc(Cl)c24)C3)C[C@@H]1CC#N [adagrasib] | 26.9 | 9.97 | 2.16
CS(=O)(=O)CCNCc1ccc(-c2ccc3ncnc(Nc4ccc(OCc5cccc(F)c5)c(Cl)c4)c3c2)o1 [Lapatinib] + C=C(F)C(=O)N1CCN(c2nc(OC[C@@H]3CCCN3C)nc3c2CCN(c2cccc4cccc(Cl)c24)C3)C[C@@H]1CC#N [adagrasib] | 18.6 | 11.3 | 11.2
Cc1c(CN2CCC(Nc3ncnc4sc(CC(F)(F)F)cc34)CC2)ccc2[nH]c(C#N)cc12 [MI-463] + C=C(F)C(=O)N1CCN(c2nc(OC[C@@H]3CCCN3C)nc3c2CCN(c2cccc4cccc(Cl)c24)C3)C[C@@H]1CC#N [adagrasib] | 19.7 | 5.31 | 0.27
NC1(c2ccc(-c3nc4ccn5c(=O)[nH]nc5c4cc3-c3ccccc3)cc2)CCC1 [MK-2206] + C=C(F)C(=O)N1CCN(c2nc(OC[C@@H]3CCCN3C)nc3c2CCN(c2cccc4cccc(Cl)c24)C3)C[C@@H]1CC#N [adagrasib] | 8 | 6.39 | 12.2
CC(C)n1nc(-c2ccc3oc(N)nc3c2)c2c(N)ncnc21 [MLN-0128] + C=C(F)C(=O)N1CCN(c2nc(OC[C@@H]3CCCN3C)nc3c2CCN(c2cccc4cccc(Cl)c24)C3)C[C@@H]1CC#N [adagrasib] | 7.57 | 0.5 | 9.3
O=C1c2c(O)ccc(O)c2C(=O)c2c(NCCNCCO)ccc(NCCNCCO)c21 [Mitoxantrone] + C=C(F)C(=O)N1CCN(c2nc(OC[C@@H]3CCCN3C)nc3c2CCN(c2cccc4cccc(Cl)c24)C3)C[C@@H]1CC#N [adagrasib] | 12.9 | 0.02 | 5.32
COc1cc(N2CCC(N3CCN(C)CC3)CC2)ccc1Nc1ncc(Cl)c(Nc2ccccc2S(=O)(=O)C(C)C)n1 [NVP-TAE684] + C=C(F)C(=O)N1CCN(c2nc(OC[C@@H]3CCCN3C)nc3c2CCN(c2cccc4cccc(Cl)c24)C3)C[C@@H]1CC#N [adagrasib] | 12.8 | 3.66 | 23.6
O=C(c1cc(Cc2n[nH]c(=O)c3ccccc23)ccc1F)N1CCN(C(=O)C2CC2)CC1 [Olaparib] + C=C(F)C(=O)N1CCN(c2nc(OC[C@@H]3CCCN3C)nc3c2CCN(c2cccc4cccc(Cl)c24)C3)C[C@@H]1CC#N [adagrasib] | 5.71 | 1.38 | 2.95
C=CC(=O)Nc1cc(Nc2nccc(-c3cn(C)c4ccccc34)n2)c(OC)cc1N(C)CCN(C)C [Osimertinib] + C=C(F)C(=O)N1CCN(c2nc(OC[C@@H]3CCCN3C)nc3c2CCN(c2cccc4cccc(Cl)c24)C3)C[C@@H]1CC#N [adagrasib] | 10 | 8.16 | 26.1
O=C(/C=C/N1C[C@H]2C[C@@H]1CN2c1ccccn1)c1ccccc1O [PFI-3] + C=C(F)C(=O)N1CCN(c2nc(OC[C@@H]3CCCN3C)nc3c2CCN(c2cccc4cccc(Cl)c24)C3)C[C@@H]1CC#N [adagrasib] | 15.8 | -3.19 | -2.21
O=C(c1c(F)ccc(NS(=O)(=O)N2CC[C@@H](F)C2)c1F)c1c[nH]c2ncc(-c3cnc(C4CC4)nc3)cc12 [PLX8394] + C=C(F)C(=O)N1CCN(c2nc(OC[C@@H]3CCCN3C)nc3c2CCN(c2cccc4cccc(Cl)c24)C3)C[C@@H]1CC#N [adagrasib] | 17.5 | 0.57 | -2.23
CC(=O)c1c(C)c2cnc(Nc3ccc(N4CCNCC4)cn3)nc2n(C2CCCC2)c1=O [Palbociclib] + C=C(F)C(=O)N1CCN(c2nc(OC[C@@H]3CCCN3C)nc3c2CCN(c2cccc4cccc(Cl)c24)C3)C[C@@H]1CC#N [adagrasib] | 8.54 | 2.62 | 19.2
